Measured values published in PMC5996281, “Salinity Tolerance of Two Potato Cultivars (Solanum tuberosum) Correlates With Differences in Vacuolar Transport Activity” (Frontiers in Plant Science, 2018).
Blank lines part the entries; values can stand above or below the molecule they belong to.

Legend:
[1] = test system: T1, V-H^+-PPase (cv. Desiree); settings: 10 mM Mops-TRIS pH 7.0, 5 mM MgCl2, 100 mM KCl; vesicles from control plants (0 mM NaCl)
T1 construct: gene StVP1

V-H^+-PPase (cv. Mozart) = test system: T2, V-H^+-PPase (cv. Mozart); settings: 10 mM Mops-TRIS pH 7.0, 5 mM MgCl2, 100 mM KCl; vesicles from control plants (0 mM NaCl)
T2 construct: gene StVP1

[2] = test system: T3, V-H^+-ATPase (cv. Mozart); experiment: ACMA fluorescence quench, initial rate of H+ pumping in tonoplast vesicles; assay type: biochemical, Solanum tuberosum; settings: 10 mM Mops-TRIS pH 7.0, 5 mM MgCl2, 100 mM KCl; vesicles from control plants (0 mM NaCl)
T3 construct: gene VHA-A; subunit A 69 kDa on blot; with V-type proton ATPase 16 kDa proteolipid subunit; V-type proton ATPase subunit a

[3] = test system: T4, V-H^+-ATPase (cv. Desiree); experiment: as above; assay type: biochemical, Solanum tuberosum; settings: 10 mM Mops-TRIS pH 7.0, 5 mM MgCl2, 100 mM KCl; vesicles from control plants (0 mM NaCl)
T4 construct: gene VHA-A; subunit A 69 kDa on blot; with V-type proton ATPase 16 kDa proteolipid subunit; V-type proton ATPase subunit a

V-H^+-ATPase = biological target: T5, V-H^+-ATPase; experiment: ACMA fluorescence quench, ATP-driven H+ pumping in tonoplast vesicles; assay type: biochemical, Solanum tuberosum; settings: 1 mM Mg ATP, 10 mM Mops-TRIS pH 7.0, 5 mM MgCl2, 100 mM KCl; inhibition; cultivar not told
T5 construct: gene VHA-c; native V1Vo complex in tonoplast-enriched leaf vesicles; with V-type proton ATPase catalytic subunit A; V-type proton ATPase subunit B

Km [1]: 7.3 ± 1.1 µM | Km (V-H^+-PPase (cv. Mozart)): 9.6 ± 0.8 µM
SMILES: O=P(O)(O)OP(=O)(O)O [PPi]

Km [2]: 28 µM | Km [3]: 81 µM
SMILES: Nc1ncnc2c1ncn2[C@@H]1O[C@H](COP(=O)(O)OP(=O)(O)OP(=O)(O)O)[C@@H](O)[C@H]1O [ATP]

SMILES: CO/C1=C\C(C)=C\[C@@H](C)[C@@H](O)[C@@H](C)C/C(C)=C/C=C/[C@H](OC)[C@@H]([C@@H](C)[C@@H](O)[C@H](C)[C@@]2(O)C[C@@H](O)[C@H](C)[C@@H](C(C)C)O2)OC1=O [bafilomycin]
EC50 (V-H^+-ATPase): 200 pM
